Series [1] concerns Mus musculus. The series is described as follows: Inhibition of 11beta-HSD1 in ICR mouse assessed as conversion of [3H]cortisone to [3H]cortisol at 10 mg/kg, po after 4 hrs by scintillation counting. Format: functional.
Series [2] has as its target T1, Nuclear receptor subfamily 1 group I member 2 (Homo sapiens, UniProt O75469).
T1 sequence (O75469 whole entry): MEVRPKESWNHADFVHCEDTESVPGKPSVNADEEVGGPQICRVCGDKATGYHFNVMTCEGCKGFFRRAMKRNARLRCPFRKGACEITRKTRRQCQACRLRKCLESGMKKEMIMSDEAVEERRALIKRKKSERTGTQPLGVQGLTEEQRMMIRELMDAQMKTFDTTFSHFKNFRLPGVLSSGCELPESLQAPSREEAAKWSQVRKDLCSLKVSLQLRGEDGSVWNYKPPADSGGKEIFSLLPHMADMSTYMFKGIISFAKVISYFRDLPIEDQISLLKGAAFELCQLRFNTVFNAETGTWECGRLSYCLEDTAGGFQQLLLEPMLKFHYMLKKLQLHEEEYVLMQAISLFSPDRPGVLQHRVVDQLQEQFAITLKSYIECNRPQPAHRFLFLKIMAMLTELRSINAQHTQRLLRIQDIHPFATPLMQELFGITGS
The series is described as follows: Agonist activity at PXR. Format: functional.

In series [3] the target is T1, Nuclear receptor subfamily 1 group I member 2. The series is described as follows: Agonist activity at PXR at 10 uM. Format: functional.
Series [4] concerns the target 11-beta-hydroxysteroid dehydrogenase 1 (Homo sapiens, UniProt P28845). The series is described as follows: Inhibition of human 11beta-HSD1 expressed in CHO-K1 cells assessed as conversion of [3H]cortisone to [3H]cortisol by scintillation counting. In kind it is cell-based.
The target of series [5] is 11-beta-hydroxysteroid dehydrogenase 1 (Mus musculus, UniProt P50172). The series is described as follows: Inhibition of mouse 11beta-HSD1 expressed in CHO-K1 cells assessed as conversion of [3H]cortisone to [3H]cortisol by scintillation counting. In kind it is cell-based.
Sequence of 11-beta-hydroxysteroid dehydrogenase 1 (Mus musculus, UniProt P50172) (P50172 whole entry): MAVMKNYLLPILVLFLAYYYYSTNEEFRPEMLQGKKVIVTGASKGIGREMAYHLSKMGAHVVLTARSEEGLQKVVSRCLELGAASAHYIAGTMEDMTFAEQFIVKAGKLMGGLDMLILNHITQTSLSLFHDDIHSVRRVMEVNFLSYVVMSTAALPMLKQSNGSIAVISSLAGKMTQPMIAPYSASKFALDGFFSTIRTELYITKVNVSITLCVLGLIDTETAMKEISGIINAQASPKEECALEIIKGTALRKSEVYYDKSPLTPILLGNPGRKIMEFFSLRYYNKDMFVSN
The test system of series [6] is Mus musculus. The series is described as follows: Inhibition of 11beta-HSD1 in ICR mouse assessed as conversion of [3H]cortisone to [3H]cortisol at 10 mg/kg, po after 16 hrs by scintillation counting. Format: functional.
Series [7] has as its target T2, 11-beta-hydroxysteroid dehydrogenase type 2 (Homo sapiens, UniProt P80365).
T2 sequence (P80365 whole entry): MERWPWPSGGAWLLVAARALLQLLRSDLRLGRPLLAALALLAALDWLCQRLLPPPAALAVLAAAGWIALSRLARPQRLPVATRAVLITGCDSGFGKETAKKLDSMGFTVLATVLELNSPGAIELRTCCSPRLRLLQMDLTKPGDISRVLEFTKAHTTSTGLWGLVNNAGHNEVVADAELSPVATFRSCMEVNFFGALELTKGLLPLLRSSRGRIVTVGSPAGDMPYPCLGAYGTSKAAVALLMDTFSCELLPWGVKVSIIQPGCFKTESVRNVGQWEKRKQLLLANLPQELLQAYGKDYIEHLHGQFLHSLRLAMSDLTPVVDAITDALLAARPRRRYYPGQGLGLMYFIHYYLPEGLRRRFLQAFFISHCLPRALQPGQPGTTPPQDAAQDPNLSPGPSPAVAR
The series is described as follows: Inhibition of human 11beta-HSD2.

Series [8] deals with T3, 11-beta-hydroxysteroid dehydrogenase type 2 (Mus musculus, UniProt P51661).
T3 sequence (P51661 whole entry): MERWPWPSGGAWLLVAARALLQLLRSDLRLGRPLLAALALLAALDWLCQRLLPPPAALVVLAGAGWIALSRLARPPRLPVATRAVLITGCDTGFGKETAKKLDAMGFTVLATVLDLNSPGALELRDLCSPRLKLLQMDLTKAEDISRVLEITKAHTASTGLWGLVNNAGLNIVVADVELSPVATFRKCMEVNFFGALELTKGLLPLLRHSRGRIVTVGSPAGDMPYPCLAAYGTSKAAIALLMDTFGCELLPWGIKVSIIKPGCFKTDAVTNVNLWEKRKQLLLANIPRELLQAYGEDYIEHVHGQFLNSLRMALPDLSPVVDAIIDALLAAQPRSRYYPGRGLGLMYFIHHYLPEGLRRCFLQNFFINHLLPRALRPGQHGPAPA
The series is described as follows: Inhibition of mouse 11beta-HSD2.

The structures appear in SMILES notation.

Sequence of 11-beta-hydroxysteroid dehydrogenase 1 (Homo sapiens, UniProt P28845) (P28845 whole entry): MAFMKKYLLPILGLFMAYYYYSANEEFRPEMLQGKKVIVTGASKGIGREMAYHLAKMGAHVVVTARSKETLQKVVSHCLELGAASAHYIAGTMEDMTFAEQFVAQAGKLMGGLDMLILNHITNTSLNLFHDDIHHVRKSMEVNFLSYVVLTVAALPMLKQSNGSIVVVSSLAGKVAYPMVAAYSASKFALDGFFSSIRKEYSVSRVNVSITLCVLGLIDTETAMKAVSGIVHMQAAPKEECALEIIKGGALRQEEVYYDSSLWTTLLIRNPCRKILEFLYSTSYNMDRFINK

Consider `COc1cc(-c2cccnc2)ccc1-c1nnc(C2(c3ccc(Cl)cc3)CCC2)n1C`, for which the inhibition in vivo (in general, the relative decrease from the control value, in per cent) at 10 mg/kg in series [1] amounted to 82%; in series [6], 21%. In series [2], the EC50 (as a rule, the concentration giving half of the maximal effect) amounted to 4600 nM. Further, the Activity in series [3] was found to be 65%. The IC50 (usually the concentration needed to halve the response being measured) in series [4] was 1.5 nM; in series [5], 0.75 nM; in series [7], > 4000 nM; in series [8], > 4000 nM.

Turning to `Cc1cc(C(=O)Nc2ccc(-c3nnc(C4(c5ccc(Cl)cc5)CCC4)n3C)cc2)c(C)o1`, the values for the inhibition in vivo at 10 mg/kg in series [1] and in series [6] were 91% and 81%, respectively. Further, the half-maximal effective concentration (EC50) in series [2] is > 30000 nM. Besides, in series [3], the Activity amounted to 18%. Further, the IC50 in series [4] is 9.5 nM; in series [5], < 1 nM; in series [7], > 4000 nM; in series [8], > 4000 nM.

`Cc1noc(C)c1-c1ccc(-c2nnc(C3(c4ccc(Cl)cc4)CCC3)n2C)cc1`: the figures for the inhibition in vivo at 10 mg/kg in series [1] and in series [6] were 63% and 9%, respectively. Besides, the EC50 in series [2] was > 30000 nM. In series [3], the Activity came out at 26%. Moreover, the IC50 in series [4] was 4.8 nM; in series [5] it was 3.4 nM; in series [7] it was > 4000 nM; in series [8] it was > 4000 nM.

For `Cn1c(-c2ccc(-c3cccnc3)cc2O)nnc1C1(c2ccc(Cl)cc2)CCC1`, the inhibition in vivo at 10 mg/kg was 59% in series [1] and 10% in series [6]. Also, the EC50 in series [2] was > 30000 nM. The Activity in series [3] was found to be 45%. The IC50 in series [4] is 38 nM; in series [5], 1 nM; in series [7], > 4000 nM; in series [8], > 4000 nM.

On to `Cn1c(-c2ccc(-c3cnccn3)cc2OC(F)F)nnc1C1(c2ccc(Cl)cc2)CCC1`, for which the results for the inhibition in vivo at 10 mg/kg in series [1] and in series [6] were 88% and 14%, respectively. In addition, the EC50 in series [2] is > 30000 nM. The Activity in series [3] was 45%. Moreover, the IC50 in series [4] is 3.7 nM; in series [5], 1 nM; in series [7], > 4000 nM; in series [8], > 4000 nM.

Regarding `Cn1c(-c2ccc(C(N)=O)cc2)nnc1C1(c2ccc(Cl)cc2)CCC1`, the inhibition in vivo at 10 mg/kg in series [1] is 35%; in series [6], 4%. The EC50 in series [2] was > 30000 nM. Besides, in series [3], the Activity came out at 21%. The IC50 in series [4] is 1 nM; in series [5], 26 nM; in series [7] it was > 4000 nM; in series [8], > 4000 nM.

Regarding `Cn1c(-c2ccc(-c3cccnc3)cc2F)nnc1C1(c2ccc(Cl)cc2)CCC1`, the inhibition in vivo at 10 mg/kg turned out to be 86% in series [1] and 15% in series [6]. The EC50 in series [2] is > 30000 nM. Also, the Activity in series [3] came out at 43%. Besides, the 50% inhibitory concentration (IC50) in series [4] is 1.8 nM; in series [5] it was 1.6 nM; in series [7], > 4000 nM; in series [8], > 4000 nM.

With `Cn1c(-c2ccc(-c3ccon3)cc2)nnc1C1(c2ccc(Cl)cc2)CCC1`, the inhibition in vivo at 10 mg/kg in series [1] stood at 95%; in series [6], 67%. For the same compound, the half-maximal effective concentration (EC50) in series [2] was > 30000 nM. Also, the Activity in series [3] is on record as 35%. In addition, the IC50 was 11 nM in series [4], 6 nM in series [5], > 4000 nM in series [7] and > 4000 nM in series [8].

`Cn1c(-c2ccc(-c3cnc(N)nc3)cc2)nnc1C1(c2ccc(Cl)cc2)CCC1`: the figures for the inhibition in vivo at 10 mg/kg in series [1] and in series [6] were 34% and -5%, respectively. Moreover, the EC50 in series [2] was > 30000 nM. The Activity in series [3] was determined as 3%. In addition, the IC50 is 2.2 nM in series [4], 2.2 nM in series [5], > 4000 nM in series [7] and > 4000 nM in series [8].

Regarding `Cn1c(-c2ccc(NC(=O)c3cnccn3)cc2)nnc1C1(c2ccc(Cl)cc2)CCC1`, the inhibition in vivo at 10 mg/kg in series [1] is 67%; in series [6], 5%. Besides, the EC50 in series [2] was > 30000 nM. For the same compound, in series [3], the Activity is given as -2.5%. In addition, the IC50 in series [4] is 69 nM; in series [5], 11 nM; in series [7], > 4000 nM; in series [8] it was > 4000 nM.

For `Cn1c(-c2ccc(C(=O)O)cc2)nnc1C1(c2ccc(Cl)cc2)CCC1`, the results for the inhibition in vivo at 10 mg/kg in series [1] and in series [6] were 10% and -8%, respectively. In addition, in series [2], the EC50 is > 30000 nM. Besides, the Activity in series [3] was -1%. Further, the IC50 was 76 nM in series [4], 87 nM in series [5], > 4000 nM in series [7] and > 4000 nM in series [8].

On to `COc1ncc(-c2ccc(-c3nnc(C4(c5ccc(Cl)cc5)CCC4)n3C)cc2)c(OC)n1`, for which the results for the inhibition in vivo at 10 mg/kg in series [1] and in series [6] were 59% and 10%, respectively. In series [2], the EC50 was > 30000 nM. For the same compound, the Activity in series [3] is 35%. The IC50 in series [4] was 14 nM; in series [5], 2 nM; in series [7] it was > 4000 nM; in series [8] it was > 4000 nM.

With `Cn1c(-c2ccc(C(N)=O)cc2C(N)=O)nnc1C1(c2ccc(Cl)cc2)CCC1`, the inhibition in vivo at 10 mg/kg was -11% in series [1] and 0% in series [6]. Further, the 50% effective concentration (EC50) in series [2] is > 30000 nM. The Activity in series [3] is -7%. Moreover, the IC50 was 2.2 nM in series [4], 150 nM in series [5], > 4000 nM in series [7] and > 4000 nM in series [8].

For `Cn1c(-c2ccc(NC(=O)c3ccno3)cc2)nnc1C1(c2ccc(Cl)cc2)CCC1`, the inhibition in vivo at 10 mg/kg was found to be 69% in series [1] and 11% in series [6]. Moreover, the EC50 in series [2] was > 30000 nM. The Activity in series [3] was determined as 21%. Also, the IC50 in series [4] is 8 nM; in series [5], 2.8 nM; in series [7] it was > 4000 nM; in series [8] it was > 4000 nM.

`CC(=O)Nc1ccc(-c2nnc(C3(c4ccc(Cl)cc4)CCC3)n2C)c(Cl)c1`: the inhibition in vivo at 10 mg/kg in series [1] is 79%; in series [6] it was 27%. In series [2], the EC50 is > 30000 nM. In addition, the Activity in series [3] is on record as 34%. Also, the IC50 in series [4] was < 1 nM; in series [5], < 1 nM; in series [7], > 4000 nM; in series [8] it was > 4000 nM.

Turning to `Cn1c(-c2ccc(C(=O)NC(C)(C)C)cc2)nnc1C1(c2ccc(Cl)cc2)CCC1`, the inhibition in vivo at 10 mg/kg was found to be 71% in series [1] and 5% in series [6]. In addition, in series [2], the concentration for a half-maximal effect (EC50) was > 30000 nM. In addition, the Activity in series [3] is reported as 11%. The IC50 in series [4] was 540 nM; in series [5], 3 nM; in series [7], > 4000 nM; in series [8], > 4000 nM.

Regarding `Cn1c(-c2ccc(C(=O)O)cc2Cl)nnc1C1(c2ccc(Cl)cc2)CCC1`, the inhibition in vivo at 10 mg/kg is 90% in series [1] and 38% in series [6]. In addition, in series [2], the EC50 amounted to 18000 nM. For the same compound, the Activity in series [3] turned out to be 28%. Besides, the IC50 in series [4] is 11 nM; in series [5], 19 nM; in series [7], > 4000 nM; in series [8], > 4000 nM.

As for `Cn1c(-c2ccc(NC(=O)c3cccs3)cc2)nnc1C1(c2ccc(Cl)cc2)CCC1`, the inhibition in vivo at 10 mg/kg in series [1] was 63%; in series [6] it was 2%. Besides, the midpoint of the response in series [2], the EC50, lay at 8700 nM. Moreover, in series [3], the Activity was 55%. Further, the IC50 was 8.7 nM in series [4], 1 nM in series [5], > 4000 nM in series [7] and > 4000 nM in series [8].

The values are drawn from ChEMBL document CHEMBL1759971, “Substituted phenyl triazoles as selective inhibitors of 11β-Hydroxysteroid Dehydrogenase Type 1” (Bioorg Med Chem Lett, 2011).
